Test results reported in ChEMBL document CHEMBL1136730, “Antiestrogens and selective estrogen receptor modulators as multifunctional medicines. 2. Clinical considerations and new agents” (J Med Chem, 2003).
Values belong to the molecule of their own block, whether it stands above or below them. Active and inactive are the calls of the source. The rule behind the calls is not given here.

Assays:
Rattus norvegicus = assay: Effect on stimulation of immature rat uterus in dose limit of 0.1 and 10 mg/kg; No effect but lowers circulating cholesterol; format: functional, organism-based; design: dose 10 mg/kg
Estrogen receptor = target: T1, Estrogen receptor (Homo sapiens, UniProt P03372); assay: Binding affinity for Estrogen receptor alpha
T1 sequence (P03372 whole entry): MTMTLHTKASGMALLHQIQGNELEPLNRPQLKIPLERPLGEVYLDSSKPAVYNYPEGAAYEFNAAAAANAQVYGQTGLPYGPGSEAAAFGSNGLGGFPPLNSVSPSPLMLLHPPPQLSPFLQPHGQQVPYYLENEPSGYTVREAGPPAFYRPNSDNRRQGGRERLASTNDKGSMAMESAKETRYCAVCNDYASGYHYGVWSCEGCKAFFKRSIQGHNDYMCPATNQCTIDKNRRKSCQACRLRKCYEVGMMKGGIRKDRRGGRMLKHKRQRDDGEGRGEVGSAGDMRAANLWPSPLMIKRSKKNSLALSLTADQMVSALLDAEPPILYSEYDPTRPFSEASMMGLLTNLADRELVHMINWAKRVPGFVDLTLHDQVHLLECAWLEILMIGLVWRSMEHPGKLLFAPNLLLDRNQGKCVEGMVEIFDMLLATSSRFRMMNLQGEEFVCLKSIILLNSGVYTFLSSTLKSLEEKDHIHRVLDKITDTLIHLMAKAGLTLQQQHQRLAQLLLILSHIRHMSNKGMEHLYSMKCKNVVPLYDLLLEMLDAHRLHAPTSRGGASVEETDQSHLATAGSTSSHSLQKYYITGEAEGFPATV

Homo sapiens [1] = species: Homo sapiens; assay: Effect on spine fractures in postmenopausal women with osteoporosis; format: functional
Homo sapiens [2] = species: Homo sapiens; assay: Effect on bone density in the lumber spine was determined in postmenopausal women; format: functional
[3] = Effect on bone density of totalhip was determined in postmenopausal women; format: functional, Homo sapiens, Bone element

SMILES: Oc1ccc2c(c1)CN(c1ccc(OCCN3CCCCC3)cc1)c1c-2ccc2cc(O)ccc12
- Effect (Rattus norvegicus): inactive
- Ki (Estrogen receptor): 0.28 nM

- bioavailability (in vivo): 2%
SMILES: O=C(c1ccc(OCCN2CCCCC2)cc1)c1c(-c2ccc(O)cc2)sc2cc(O)ccc12 [RALOXIFENE]
- Decrease (Homo sapiens [1]): 40%
- Increase (Homo sapiens [2]): 2.4%
- Increase [3]: 2.4%
